Consider 1 molecule from patent publication US20230043985A1, “ONCE DAILY CANCER TREATMENT REGIMEN WITH A PRMT5 INHIBITOR” (Pfizer Inc., priority 2019, published 2023).

Series [1] in a line: Pre-clinical prediction of human in vivo plasma clearance from human liver microsomes. It counts as in vitro ADME. Conditions: used as the predicted CL. The method, then:
(§1) Briefly, in vivo plasma clearance (CL) in humans was predicted to be ˜3 and ˜0.6 mL/min/kg from human liver microsomes and hepatocytes, respectively. The conservative value of ˜3 mL/min/kg from human liver microsomes was used as the predicted CL. […] A half-life (t1/2) is predicted to be ˜6 h calculated by the equation: t1/2=0.693*Vss/CL.

A short description of series [2]: Pre-clinical prediction of human in vivo plasma clearance from hepatocytes. Format: in vitro ADME. The procedure: as §1
Series [3] is described as follows: Tolerability of BID dosing scheme in Phase 1 clinical trial. As to conditions: BID (twice daily) dosing scheme, patients. It counts as in vivo, human. The source says: These calculations, and in particular the half-life projection, were incorporated into the design of a Phase I clinical trial of Compound 1 [Study NCT03854227; A Phase 1 Study to Evaluate the Safety, Pharmacokinetics, and Pharmacodynamics of Escalating Doses Of [Compound 1] (PRMT Inhibitor) in Participants with Advanced or Metastatic Non-Small Cell Lung Cancer, Head And Neck Squamous Cell Carcinoma, Esophageal Cancer, Endometrial Cancer, Cervical Cancer And Bladder Cancer; first posted 26 Feb. 2019] which included BID (twice daily) dosing of 0.5 mg, 1 mg, 2 mg, 4 mg, 8 mg, 16 mg, 30 mg and 60 mg Compound 1. BID (twice daily) dosing was implemented for all doses thought to potentially be therapeutic in order to limit (i.e., lessen) the projected peak to trough ratio of Compound 1 in view of the predicted ˜6-hour half-life of Compound 1.
In this regard, it is noted that the primary indications for Compound 1 are various cancer types which are often accompanied by patients' physical and emotional difficulties in executing self-care. Moreover, many cancer indications become more prevalent with advancing age and is often accompanied by decline in memory. […]
Part 1A (dose escalation) has approximately 9 cohorts and enrolls approximately 40 participants. […] Dose limiting toxicities (DLT) were assessed at the end of Cycle 1 (28 days) to inform dose escalation and determine the MTD. […]

Series [4] concerns the target T1, PRMT5 (Homo sapiens, UniProt O14744).
T1 construct: endogenous in cells; host or cells: tissues of the dosed subjects (in vivo); SDMA measured in plasma by LC-MS/MS
Put plainly: Blood pharmacodynamic biomarker plasma SDMA inhibition (LC-MS/MS) in patients. It counts as in vivo. The method, then: The plasma SDMA (Symmetrical Dimethylarginine) level was used as a pharmacodynamic biomarker (PD) to monitor the inhibition effect of Compound 1. SDMA was chosen for the blood PD biomarker because PRMT5 catalyzes the formation of SDMA in a number of nuclear and cytoplasmic proteins, and PRMT5 inhibition would result in a decrease of SDMA. The quantitative determination of SDMA was performed by using a liquid chromatography mass spectrometry (LC-MS/MS) assay which is an exceedingly sensitive and specific analytical technique that can precisely determine the identities and concentration of compounds such as SDMA within a sample. The assay had been validated from 1-500 ng/ml in plasma. […] The plasma SDMA inhibition were around 60% for the first two cohorts (N=1 in each cohort), including 0.5 mg QD and 0.5 mg BID. The plasma SDMA inhibition was around 80% from cohort 3 to cohort 9, including 1 mg BID (N=2), 2 mg BID (N=3), 4 mg BID (N=3), 6 mg BID (N=4), 4 mg QD (N=5), 6 mg QD (N=6), and 8 mg QD (N=3).

A short description of series [5]: Pre-clinical projection of human Vss, half-life and peak to trough ratio (unbound Vss scaling from rats and dogs; t1/2=0.693*Vss/CL). Conditions: for predicted peak to trough ratio in humans: based on ~6-hour projected half-life. The method, then:
as §1
Moreover, based on the ˜6-hour projected half-life for Compound 1 the likely peak to trough ratio in humans was predicted to be lower following twice daily (BID) dosing (˜4) compared to once daily (QD) dosing (˜8 or more). Lower peak to trough ratios are generally more desirable because they may help to minimize potential Cmax-related adverse effects (if any) while maintaining the therapeutic effects.
Half-life, for instance the half-life of Compound 1, refers to the time it takes for the plasma concentration of Compound 1 to decrease by 50% as calculated by the equation: 0.693*Vss/CL where Vss is the steady-state volume of distribution and CL is plasma clearance.

Series [6] in a line: Phase 1 clinical PK of Compound 1 in patients (plasma, LC-MS/MS), Study NCT03854227. It counts as in vivo, human. The method, then:
Peak to trough ratio refers to the ratio of the maximum concentration (Cmax) to minimum concentration (Cmin) of Compound 1 observed. Relevant to the present invention is the peak to trough ration during the dosing interval at “steady state” (day 15). Blood samples for the characterization of PK profiles were collected at pre- and post-dose on Day 1 (single dose) and Day 15 (steady state), and were analyzed for Compound 1 using a validated liquid chromatography coupled with tandem mass spectrometry (LC-MS/MS) assay. The lower limit of quantitation of the assay was 0.250 ng/mL. The representative day 1 median PK profile of Compound 1 dosed at 2 mg BID is provided at FIG. 1. The representative steady state (day 15) median PK profile of Compound 1 dosed at 2 mg BID is provided at FIG. 2. Table 1 (below) depicts representative mean maximum (Cmax) and minimum (Cmin) daily concentrations of Compound 1 at “steady state” (day 15) dosed BID at 2 mg. A population pharmacokinetic (PK) model was generated based on the preliminary PK data from 6 patients received Compound 1 orally at doses up to 2 mg BID at steady state. It was observed that actual mean peak to trough ratio at steady state (here, 15 days of dosing) of Compound 1 in the NCT03854227 clinical trial was ˜2 for BID dosing, substantially lower than that previously predicted based on pre-clinical data (˜4 for BID). Furthermore, based on this population PK model, the steady state PK profiles following QD vs BID dosing (using a 16 mg total daily dose as an example) were compared using the individual PK parameters from each of these 6 patients. […] Compound 1 was provided to patients in three cohorts as tablets ((1) 1 mg tablets (for patient dosed with 4 mg QD); and 2) 1 mg and 5 mg tablets (for patients dosed with 6 mg QD and 8 mg QD)) supplied in separate labeled bottles for oral administration. Because patients were receiving 4 mg QD, 6 mg QD, and 8 mg QD, respectively, each of them were instructed to swallow whole (i.e., without crushing or chewing) 1) four 1 mg tablets (for the 4 mg QD cohort (N=3)); 2) one 5 mg tablets and one 1 mg tablet (for the 6 mg cohort (N=6)); and 3) one 5 mg tablet and three 1 mg tablets (for the 8 mg cohort (N=2)) at the same time each morning with at least 8 oz (240 mL) of water on an empty stomach. No food or liquids other than water were consumed for 2 hours before and 1 hour following each dose administration. Patients in these cohorts took Compound 1 orally QD as described above for four cycles (a cycle is 28 days). Weekly visits to the clinic were made by the patient to evaluate the anti-cancer activity and side effects of Compound 1. FIG. 5, FIG. 6, and FIG. 7 show the Day 15 steady state median concentration-time profiles for 4 mg QD, 6 mg QD, and 8 mg QD, respectively. […]

The term inhibition denotes the percentage by which the read-out fell short of the control. Lower therefore signals a response near the control.

T1 sequence (O14744 whole entry): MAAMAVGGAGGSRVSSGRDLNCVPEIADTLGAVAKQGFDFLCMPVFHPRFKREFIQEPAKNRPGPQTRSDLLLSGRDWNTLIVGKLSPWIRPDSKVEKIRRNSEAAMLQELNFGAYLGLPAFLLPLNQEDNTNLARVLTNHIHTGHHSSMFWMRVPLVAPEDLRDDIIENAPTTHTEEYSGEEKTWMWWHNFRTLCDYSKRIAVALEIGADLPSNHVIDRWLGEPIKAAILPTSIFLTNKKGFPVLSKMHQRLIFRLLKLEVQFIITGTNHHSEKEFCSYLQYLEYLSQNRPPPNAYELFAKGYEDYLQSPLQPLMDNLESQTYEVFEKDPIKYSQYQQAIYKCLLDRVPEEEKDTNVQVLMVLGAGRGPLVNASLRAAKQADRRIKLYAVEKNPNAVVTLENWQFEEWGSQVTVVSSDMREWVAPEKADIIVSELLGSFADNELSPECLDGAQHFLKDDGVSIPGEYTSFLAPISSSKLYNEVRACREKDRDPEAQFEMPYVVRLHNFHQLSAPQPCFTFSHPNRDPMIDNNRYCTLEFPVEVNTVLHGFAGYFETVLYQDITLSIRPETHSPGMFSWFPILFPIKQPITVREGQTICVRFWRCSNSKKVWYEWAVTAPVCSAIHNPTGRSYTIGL
T1 sequence (Q9BQA1 whole entry partner): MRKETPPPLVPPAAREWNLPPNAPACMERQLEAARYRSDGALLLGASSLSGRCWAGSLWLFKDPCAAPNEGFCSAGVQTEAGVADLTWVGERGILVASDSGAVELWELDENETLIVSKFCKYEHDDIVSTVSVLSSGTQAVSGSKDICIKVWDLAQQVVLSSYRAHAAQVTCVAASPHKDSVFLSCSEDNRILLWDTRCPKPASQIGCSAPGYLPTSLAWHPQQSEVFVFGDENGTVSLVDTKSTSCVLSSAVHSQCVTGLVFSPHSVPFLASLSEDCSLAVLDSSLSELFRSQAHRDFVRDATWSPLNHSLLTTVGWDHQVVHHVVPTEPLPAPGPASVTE

As to `Cc1ncnc2c1ccn2[C@@H]1C[C@H](Oc2cc(C(F)F)c(F)c3c2CNCC3)[C@@H](O)[C@H]1O` [Compound 1, (1S,2S,3S,5R)-3-((6-(difluoromethyl)-5-fluoro-1,2,3,4-tetrahydroisoquinolin-8-yl)oxy)-5-(4-methyl-7H-pyrrolo[2,3-d]pyrimidin-7-yl)cyclopentane-1,2-diol], the results for the “predicted in vivo plasma clearance (CL) in humans” value in series [1] and in series [2] were roughly 3 mL/min/kg and roughly 0.6 mL/min/kg, respectively. Besides, the tolerability entry in series [3] is “well tolerated”. Also, the “plasma SDMA inhibition” value in series [4] (cohort 3 to cohort 9: 1, 2, 4, 6 mg BID and 4, 6, 8 mg QD) was “around 80%”. Also, the inhibition at 0.5 mg in series [4] (human, first two cohorts: 0.5 mg QD and 0.5 mg BID (N=1 in each)) was roughly 60%. Further, in series [4] (plasma, different dose levels, patients (FIG. 8)), the “SDMA reduction over time” value is reported as 60-80%. Further, the “predicted half-life (t1/2) in humans” value in series [5] (calculated t1/2=0.693*Vss/CL) is roughly 6 h. Further, the “predicted steady-state volume of distribution (Vss) in humans” value in series [5] (mean unbound Vss scaling from rats and dogs, factoring in human plasma protein binding) was 1.6 L/kg. For the same molecule, the results for the “predicted peak to trough ratio in humans” value in series [5] (once daily (QD) dosing) and in series [5] (twice daily (BID) dosing) were no less than 8 and roughly 4, respectively. Also, the “actual mean peak to trough ratio at steady state” value in series [6] (BID dosing, doses up to 2 mg BID, 15 days of dosing, patients) was roughly 2. In series [6] (QD oral dosing (4 mg, 6 mg, 8 mg QD cohorts), Day 15, patients), the “peak-to-trough ratio at steady state (median)” value was 3.1. The Cmax at 15 day in series [6] (human, plasma, 2 mg BID oral, steady state (day 15), patients, N=2, read-out: Cmax (mean maximum daily concentration)) was determined as 26.9 ng/mL. Moreover, the concentration at 15 day in series [6] (human, plasma, 2 mg BID oral, steady state (day 15), patients, N=2, read-out: Cmin (mean minimum daily concentration)) was 14.6 ng/mL.
